Assay results reported in publication PMC10035947, “Development of novel anilinoquinazoline-based carboxylic acids as non-classical carbonic anhydrase IX and XII inhibitors” (Journal of Enzyme Inhibition and Medicinal Chemistry, 2023).
pKi: −log10 of the molar value.

Tests used:
T-47D = test: NCI SRB assay; format: cell-based, human
U251 = test: NCI SRB assay; format: cell-based, human
UACC-62 = test: NCI SRB assay; format: cell-based, human
IGROV1 = test: NCI SRB assay; format: cell-based, human
SK-MEL-28 = test: NCI SRB assay; format: cell-based, human
hCA I = target: T1, hCA I (Homo sapiens, UniProt P00915); test: stopped flow CO2 hydrase assay; format: biochemical; settings: mean from 3 assays
T1 construct: made in house
T1 sequence (P00915 whole entry): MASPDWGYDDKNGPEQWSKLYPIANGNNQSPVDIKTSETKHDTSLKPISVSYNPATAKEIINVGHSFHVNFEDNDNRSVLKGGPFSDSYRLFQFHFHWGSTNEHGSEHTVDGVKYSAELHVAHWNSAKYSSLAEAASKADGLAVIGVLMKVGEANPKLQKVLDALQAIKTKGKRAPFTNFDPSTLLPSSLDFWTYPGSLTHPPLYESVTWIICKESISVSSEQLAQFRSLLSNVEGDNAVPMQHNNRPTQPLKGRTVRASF
Summary of the method: (§1)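 Recombinant enzymes assayed by stopped-flow CO2 hydration using 0.2 mM phenol red at 557 nm in 20 mM Hepes pH 7.5 with 20 mM Na2SO4, CO2 1.7–17 mM. Inhibitor and enzyme preincubated 15 min at room temperature.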

hCA IX = target: T2, hCA IX (Homo sapiens, UniProt Q16790); test: stopped flow CO2 hydrase assay; format: biochemical
T2 construct: made in house
Summary of the method: as §1

hCA XII = target: T3, hCA XII (Homo sapiens, UniProt O43570); test: stopped flow CO2 hydrase assay; format: biochemical
T3 construct: made in house
T3 sequence (O43570 25-354): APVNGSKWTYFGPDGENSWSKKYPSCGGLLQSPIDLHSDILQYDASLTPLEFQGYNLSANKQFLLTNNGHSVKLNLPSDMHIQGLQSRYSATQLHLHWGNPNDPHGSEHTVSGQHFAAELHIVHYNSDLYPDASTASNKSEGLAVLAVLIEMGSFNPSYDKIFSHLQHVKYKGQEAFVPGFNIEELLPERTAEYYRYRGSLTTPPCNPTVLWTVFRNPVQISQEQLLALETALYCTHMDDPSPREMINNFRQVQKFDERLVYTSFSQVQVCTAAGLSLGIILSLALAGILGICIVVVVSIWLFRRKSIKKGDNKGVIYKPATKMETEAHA
Summary of the method: as §1

MDA-MB-435 = test: NCI SRB assay; format: cell-based
MALME-3M = test: NCI SRB assay; format: cell-based, human
SF-539 = test: NCI SRB assay; format: cell-based, human
HS 578 T = test: NCI SRB assay; format: cell-based, human
NCI/ADR-RES = test: NCI SRB assay; format: cell-based, human
UACC-257 = test: NCI SRB assay; format: cell-based, human
786-0 = test: NCI SRB assay; format: cell-based, human
OVCAR-3 = test: NCI SRB assay; format: cell-based, human
ACHN = test: NCI SRB assay; format: cell-based, human
NCI-H226 = test: NCI SRB assay; format: cell-based, human
RPMI-8226 = test: NCI SRB assay; format: cell-based, human
KM12 = test: NCI SRB assay; format: cell-based, human
MOLT-4 = test: NCI SRB assay; format: cell-based, human
OVCAR-4 = test: NCI SRB assay; format: cell-based, human
COLO 205 = test: NCI SRB assay; format: cell-based, human
OVCAR-5 = test: NCI SRB assay; format: cell-based, human
HCC-2998 = test: NCI SRB assay; format: cell-based, human
SW-620 = test: NCI SRB assay; format: cell-based, human
BT-549 = test: NCI SRB assay; format: cell-based, human

Compound: Cc1ccc(-c2nc(Nc3ccc(C(=O)O)cc3)c3ccccc3n2)cc1 [8b, 4-((2-(p-Tolyl)quinazolin-4-yl)amino)benzoic acid]
- GI% (T-47D; 10 μM): 32%
- Growth Percent (T-47D; 1.00E-5 Molar): 68.59%
- GI% (U251; U251, 10 μM): – (Only GI% higher than 20% are shown)
- Growth Percent (U251; U251, 1.00E-5 Molar): 86.94%
- GI% (UACC-62; UACC-62, 10 μM): – (Only GI% higher than 20% are shown)
- Growth Percent (UACC-62; UACC-62, 1.00E-5 Molar): 95.83%
- GI% (IGROV1; IGROV1, 10 μM): – (Only GI% higher than 20% are shown)
- Growth Percent (IGROV1; IGROV1, 1.00E-5 Molar): 92.17%
- GI% (SK-MEL-28; SK-MEL-28, 10 μM): – (Only GI% higher than 20% are shown)
- Growth Percent (SK-MEL-28; SK-MEL-28, 1.00E-5 Molar): 84.51%
- pKi (hCA I): 4.14
- Selectivity ratio I/IX (hCA IX; KI hCA I / KI hCA IX): 45.8
- Selectivity ratio II/IX (hCA IX; KI hCA II / KI hCA IX): 2.44
- pKi (hCA IX; mean from 3 assays): 5.80
- Selectivity ratio I/XII (hCA XII; KI hCA I / KI hCA XII): 174.3
- Selectivity ratio II/XII (hCA XII; KI hCA II / KI hCA XII): 9.29
- pKi (hCA XII; mean from 3 assays): 6.38
- GI% (MDA-MB-435; MDA-MB-435, 10 μM): – (Only GI% higher than 20% are shown)
- Growth Percent (MDA-MB-435; MDA-MB-435, 1.00E-5 Molar): 100.06%
- GI% (MALME-3M; 10 μM): – (Only GI% higher than 20% are shown)
- Growth Percent (MALME-3M; 1.00E-5 Molar): 101.05%
- GI% (SF-539; SF-539, 10 μM): 21%
- Growth Percent (SF-539; SF-539, 1.00E-5 Molar): 78.63%
- GI% (HS 578 T; HS 578 T, 10 μM): 32%
- Growth Percent (HS 578 T; HS 578T, 1.00E-5 Molar): 67.76%
- GI% (NCI/ADR-RES; 10 μM): 24%
- Growth Percent (NCI/ADR-RES; 1.00E-5 Molar): 76.55%
- GI% (UACC-257; UACC-257, 10 μM): – (Only GI% higher than 20% are shown)
- Growth Percent (UACC-257; UACC-257, 1.00E-5 Molar): 107.52%
- GI% (786-0; 786-0, 10 μM): – (Only GI% higher than 20% are shown)
- Growth Percent (786-0; 786-0, 1.00E-5 Molar): 85.63%
- GI% (OVCAR-3; OVCAR-3, 10 μM): 20%
- Growth Percent (OVCAR-3; OVCAR-3, 1.00E-5 Molar): 79.51%
- GI% (ACHN; 10 μM): 24%
- Growth Percent (ACHN; 1.00E-5 Molar): 75.90%
- GI% (NCI-H226; NCI-H226, 10 μM): 62%
- Growth Percent (NCI-H226; NCI-H226, 1.00E-5 Molar): 37.77%
- GI% (RPMI-8226; RPMI-8226, 10 μM): 45%
- Growth Percent (RPMI-8226; RPMI-8226, 1.00E-5 Molar): 55.07%
- GI% (KM12; KM12, 10 μM): 42%
- Growth Percent (KM12; KM12, 1.00E-5 Molar): 57.97%
- GI% (MOLT-4; MOLT-4, 10 μM): 24%
- Growth Percent (MOLT-4; MOLT-4, 1.00E-5 Molar): 76.42%
- GI% (OVCAR-4; OVCAR-4, 10 μM): 26%
- Growth Percent (OVCAR-4; OVCAR-4, 1.00E-5 Molar): 74.11%
- GI% (COLO 205; COLO 205, 10 μM): – (Only GI% higher than 20% are shown)
- Growth Percent (COLO 205; COLO 205, 1.00E-5 Molar): 109.50%
- GI% (OVCAR-5; OVCAR-5, 10 μM): – (Only GI% higher than 20% are shown)
- Growth Percent (OVCAR-5; OVCAR-5, 1.00E-5 Molar): 95.98%
- GI% (HCC-2998; HCC-2998, 10 μM): 28%
- Growth Percent (HCC-2998; HCC-2998, 1.00E-5 Molar): 72.45%
- GI% (SW-620; SW-620, 10 μM): – (Only GI% higher than 20% are shown)
- Growth Percent (SW-620; SW-620, 1.00E-5 Molar): 91.47%
- GI% (BT-549; BT-549, 10 μM): 41%
- Growth Percent (BT-549; BT-549, 1.00E-5 Molar): 59.16%
